# According to article PMC10122656, “Siglec-6 mediates the uptake of extracellular vesicles through a noncanonical glycolipid binding pocket” (Nature Communications, 2023):
# “And” between values parts separate entries of the source, which are not always exact repeats. Equal values may be shown once.
# How the values were obtained:
# [1] = tested on: untransfected (UT) CHO cells; test: Cell assay (liposome/EV binding, flow cytometry);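 as to liposome binding, fluorescence signal (replicates): AF647 fluorescence intensity from 0.1 mol% AF647–PEG45–DSPE in liposomes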; assay type: cell-based, Chinese Hamster; conditions: for log10(MFI AF647) of GLL relative to log10(MFI AF647) of the same GLL against UT CHO cells (Fig. 2a): 3 mol% ganglioside liposomes, replicates
# Method: (§1) Stock lipids (DSPC, Cholesterol, PEG45–DSPE) solutions were prepared by solvating the lipids in chloroform. An appropriate volume of each lipid solution was transferred to a glass test tube to reach the desired mol% of the component. The chloroform was then removed under N2 gas to yield a lipid thin film. Once dry, 100 µL of DMSO was added to the lipid-containing test tube and then the functional lipids (ganglioside, AF647–PEG45–DSPE, Siglec ligand–PEG45–DSPE, pHrodo–PEG45–DSPE, NGL) was added from their respect DMSO stock solution. The lipid mixture was then stored at −80 °C until completely frozen at which point excess DMSO was removed via lyophilization. Dry lipids were then stored at −80 °C until they were extruded. Lipid suppliers can be found in Supplementary Table 4.
# (§2) Dry lipids were then hydrated in 1 mL of PBS. The lipids were then sonicated in a bath sonicator in a cycle of 1 min on, 5 min off for a total of five cycles. Liposomes were then extruded using an Avanti mini extruder first using an 800 nm filter and then a 100 nm filter yielding liposomes that were 130 ± 35 nm (Supplementary Table 5) measured using a Malvern Panalytical Zetasizer Nano S. Liposomes were stored at 4 °C.
# (§3) 200,000 cells/well were plated into a 96-well U-bottom microplate and centrifuged at 300 × g for 5 min. The cells were then resuspended in 50 µL of 50 µM liposome/50 µg/mL (protein concentration) of EV solution in DMEM F12 5% FBS and incubated at 37 °C for 30 min. Excess liposomes were then removed via centrifuged at 300 × g for 5 min followed by washing the cells with FACS solution. The cells were then resuspended in (1:250 V/V) anti-Siglec-flow buffer (1% V/V FBS, 500 µM, EDTA Hank’s Balanced Salt Solution pH 7.4), solution and left to rest on ice for 30 min. The cells were then centrifuged again at 300 × g for 5 min and the cells were resuspended in FACS buffer solution and were then ready for analysis by flow cytometry. Information regarding antibody clone, catalog number supplier, label isotype, and dilution can be found in Supplementary Table 6. The Siglec-positive cells were gated on for liposome-binding analysis (Supplementary Fig. 1b).
# (§4) Flow cytometry measurements were collected on a 5-laser Fortessa X-20 (BD Bioscience). All the resulting data were analyzed using FlowJo (10.5.3) software (BD Biosciences).
# Siglec-6-Fc WT = target: T1, Siglec-6-Fc WT (Homo sapiens, UniProt O43699); test: Ganglioside ELISA; assay type: binding; conditions: for ganglioside ELISA signal, Siglec-6 WT: Figure 2c, replicates; for ELISA recognition of adsorbed ganglioside by Siglec-6 (in words): ganglioside adsorbed to microplate, outside a bilayer
# T1 construct: the Siglecs as Fc chimeras; made in house; host or cells: WT CHO cells
# T1 sequence (O43699 27-347 limits assumed): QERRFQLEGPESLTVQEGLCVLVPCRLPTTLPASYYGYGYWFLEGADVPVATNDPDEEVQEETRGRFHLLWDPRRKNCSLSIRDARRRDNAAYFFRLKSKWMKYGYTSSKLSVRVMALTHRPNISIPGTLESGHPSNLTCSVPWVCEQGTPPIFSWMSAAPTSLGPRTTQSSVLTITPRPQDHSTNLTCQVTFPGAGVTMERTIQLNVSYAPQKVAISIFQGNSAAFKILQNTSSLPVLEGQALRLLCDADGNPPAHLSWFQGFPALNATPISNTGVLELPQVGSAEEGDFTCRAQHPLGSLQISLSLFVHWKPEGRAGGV
# Method: (§5) Siglec-Fc constructs designed by Rodrigues et al.[30] were used in this work. Siglec-Fc constructs were expressed using WT CHO cells in cell culture media as described above with 1% HEPES. Cells incubated as described above for one-week post confluency. The supernatant was harvested and stored at 4 °C.
# (§6) The purification was heavily inspired by Rodrigues et al.[30]. The purification of the Siglec-Fcs from supernatant began with Ni^2+ affinity chromatography using an AKTA FPLC equipped with a HisTrap Excel column (GE). The column was equilibrated with fifteen column volumes (CVs) of equilibrium buffer (500 mM NaCl, 20 mM NaPO4H2, pH 7.4). The Siglec-Fc containing supernatant was then loaded in its entirety onto the column. The column was then washed with fifteen CVs of wash buffer (500 mM NaCl, 30 mM imidazole, 20 mM NaPO4H2, pH 7.4). The Siglec-Fc was then eluted in 20 in 1 mL fractions with twenty CVs of elution buffer (500 mM NaCl, 500 mM imidazole, 20 mM NaPO4H2, pH 7.4). Fractions containing Siglec-Fc were compiled and then prepared for the next stage of purification by diluting the fractions 1:4 with buffer W (100 mM Tris–HCl, 150 mM NaCl, 1 mM EDTA, pH 8.0). A Strep-Tactin column (IBA life sciences) was washed with fifteen CVs of buffer W. The Siglec-Fc-buffer W solution was then loaded in its entirety onto the column. The bound Siglec-Fc was then washed with fifteen CVs of buffer W. Siglec-Fc was eluted from the column with 15 column volumes of buffer E (100 mM Tris–HCl, 150 mM NaCl, 1 mM EDTA, 10 mM d-Desthiobiotin, pH 8.0). Fractions containing Siglec-Fc were pooled and dialyzed against PBS to remove any d-Desthiobiotin. After dialysis, Siglec-Fcs were concentrated using an ultra-centrifugal device (30 kDa MWCO) and aliquoted into 5 µg aliquots, and frozen. The Siglec-Fcs were then lyophilized overnight, and the lyophilized Siglec-Fcs were stored at −20 °C.
# (§7) Our ELISA approach was carried out similarly to previous work by Rapoport[12] and Yamakawa[44]. Ganglioside ethanol solutions (10 µM) were prepared and then transferred in 50 µL increments to a 96-well microplate. The ethanol was removed by drying the plates overnight at room temperature. The plates were then washed with PBS, dried, and then blocked with 5% (m/V) BSA PBS for 1 h. The plates were then washed with PBS and then 2 µg/mL Siglec-Fc precomplexed to Strep-Tactin (2 Siglec-Fc:1 Strep-Tactin monomer) horse radish peroxidase was added to the microplate. The complex was incubated with the plate at room temperature for 2 h. The unbound complexes were then removed by washing in PBS and the plate was developed with Sera care TMB solution. The amount of binding was then quantified by using the background (microplate well with no ligand) subtracted absorbance at 450 nm using a Molecular Devices SpectraMAX ® iD5.
# R122A Siglec-6-Fc = target: T2, R122A Siglec-6-Fc (Homo sapiens, UniProt O43699, R122A); test: Ganglioside ELISA; assay type: binding; conditions: Figure 2c, replicates
# T2 construct: the Siglecs as Fc chimeras; made in house; host or cells: WT CHO cells
# T2 sequence (O43699 27-347 R122A limits assumed): as the sequence (O43699 27-347 limits assumed) above, with R96A counted along it
# Method: as §5, §6, §7
# Siglec-7-Fc R124A = target: T3, Siglec-7-Fc R124A (Homo sapiens, UniProt Q9Y286, R124A); test: Ganglioside ELISA; assay type: binding; conditions: Figure 2c, replicates
# T3 construct: the Siglecs as Fc chimeras; made in house; host or cells: WT CHO cells
# T3 sequence (Q9Y286 19-353 R124A limits assumed): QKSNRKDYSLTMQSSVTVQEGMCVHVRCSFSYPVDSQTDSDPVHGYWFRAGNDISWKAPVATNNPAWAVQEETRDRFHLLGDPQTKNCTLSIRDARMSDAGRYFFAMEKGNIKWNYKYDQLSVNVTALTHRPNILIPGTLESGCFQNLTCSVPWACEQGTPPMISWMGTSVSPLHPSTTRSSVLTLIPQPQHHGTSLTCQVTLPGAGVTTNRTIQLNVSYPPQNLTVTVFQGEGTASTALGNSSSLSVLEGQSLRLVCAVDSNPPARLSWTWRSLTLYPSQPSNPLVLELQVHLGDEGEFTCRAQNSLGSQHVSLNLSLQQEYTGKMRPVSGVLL
# Method: as §5, §6, §7
# Siglec-7-Fc WT = target: T4, Siglec-7-Fc WT (Homo sapiens, UniProt Q9Y286); test: Ganglioside ELISA; assay type: binding; conditions: Figure 2c, replicates
# T4 construct: the Siglecs as Fc chimeras; made in house; host or cells: WT CHO cells
# T4 sequence (Q9Y286 19-353 limits assumed): as the sequence (Q9Y286 19-353 R124A limits assumed) above, with A106R counted along it
# Method: as §5, §6, §7
# Siglec-1-Fc WT = Siglec-1-Fc WT (Homo sapiens, UniProt Q9BZZ2); test: Ganglioside ELISA; assay type: binding; conditions: Figure 2c, replicates
# Siglec-1-Fc WT, sequence (Q9BZZ2 20-136 limits assumed): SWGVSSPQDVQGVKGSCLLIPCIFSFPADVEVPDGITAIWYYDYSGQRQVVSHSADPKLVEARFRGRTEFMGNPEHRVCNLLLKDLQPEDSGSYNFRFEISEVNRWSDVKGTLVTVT
# Method: as §5, §6, §7
# WT Siglec-1 CHO cells = target: T5, WT Siglec-1 CHO cells (Homo sapiens, UniProt Q9BZZ2); test: Cell assay (liposome/EV binding, flow cytometry); assay type: cell-based; parameters: GM1 liposome binding to Siglec-1 CHO cells, flow cytometry (Fig. 1b) / Binding of liposomes with increasing ganglioside content against Siglec-1 CHO cells (Fig. 1c) / Liposome binding to Siglec-1-expressing CHO cells in the cell assay (Fig. 1f): unit not given here; conditions: for Binding of liposomes with increasing ganglioside content against Siglec-1 CHO cells (Fig. 1c) / log10(MFI AF647) of GLL relative to log10(MFI AF647) of the same GLL against UT CHO cells (Fig. 2a) / Liposome binding to Siglec-1-expressing CHO cells in the cell assay (Fig. 1f): replicates; for log10(MFI AF647) of GLL relative to log10(MFI AF647) of the same GLL against UT CHO cells (Fig. 2a): Sig-1 WT, 3 mol% ganglioside liposomes; for ganglioside content threshold above which GLL binding to Siglec-1 CHO cells decreased: ganglioside titrated in GLLs; for GM1 liposome binding to Siglec-1 CHO cells, flow cytometry (Fig. 1b): 3 mol% GM1 liposomes, technical replicates
# T5 construct: expressed in transfected cells
# T5 sequence (Q9BZZ2 20-1709): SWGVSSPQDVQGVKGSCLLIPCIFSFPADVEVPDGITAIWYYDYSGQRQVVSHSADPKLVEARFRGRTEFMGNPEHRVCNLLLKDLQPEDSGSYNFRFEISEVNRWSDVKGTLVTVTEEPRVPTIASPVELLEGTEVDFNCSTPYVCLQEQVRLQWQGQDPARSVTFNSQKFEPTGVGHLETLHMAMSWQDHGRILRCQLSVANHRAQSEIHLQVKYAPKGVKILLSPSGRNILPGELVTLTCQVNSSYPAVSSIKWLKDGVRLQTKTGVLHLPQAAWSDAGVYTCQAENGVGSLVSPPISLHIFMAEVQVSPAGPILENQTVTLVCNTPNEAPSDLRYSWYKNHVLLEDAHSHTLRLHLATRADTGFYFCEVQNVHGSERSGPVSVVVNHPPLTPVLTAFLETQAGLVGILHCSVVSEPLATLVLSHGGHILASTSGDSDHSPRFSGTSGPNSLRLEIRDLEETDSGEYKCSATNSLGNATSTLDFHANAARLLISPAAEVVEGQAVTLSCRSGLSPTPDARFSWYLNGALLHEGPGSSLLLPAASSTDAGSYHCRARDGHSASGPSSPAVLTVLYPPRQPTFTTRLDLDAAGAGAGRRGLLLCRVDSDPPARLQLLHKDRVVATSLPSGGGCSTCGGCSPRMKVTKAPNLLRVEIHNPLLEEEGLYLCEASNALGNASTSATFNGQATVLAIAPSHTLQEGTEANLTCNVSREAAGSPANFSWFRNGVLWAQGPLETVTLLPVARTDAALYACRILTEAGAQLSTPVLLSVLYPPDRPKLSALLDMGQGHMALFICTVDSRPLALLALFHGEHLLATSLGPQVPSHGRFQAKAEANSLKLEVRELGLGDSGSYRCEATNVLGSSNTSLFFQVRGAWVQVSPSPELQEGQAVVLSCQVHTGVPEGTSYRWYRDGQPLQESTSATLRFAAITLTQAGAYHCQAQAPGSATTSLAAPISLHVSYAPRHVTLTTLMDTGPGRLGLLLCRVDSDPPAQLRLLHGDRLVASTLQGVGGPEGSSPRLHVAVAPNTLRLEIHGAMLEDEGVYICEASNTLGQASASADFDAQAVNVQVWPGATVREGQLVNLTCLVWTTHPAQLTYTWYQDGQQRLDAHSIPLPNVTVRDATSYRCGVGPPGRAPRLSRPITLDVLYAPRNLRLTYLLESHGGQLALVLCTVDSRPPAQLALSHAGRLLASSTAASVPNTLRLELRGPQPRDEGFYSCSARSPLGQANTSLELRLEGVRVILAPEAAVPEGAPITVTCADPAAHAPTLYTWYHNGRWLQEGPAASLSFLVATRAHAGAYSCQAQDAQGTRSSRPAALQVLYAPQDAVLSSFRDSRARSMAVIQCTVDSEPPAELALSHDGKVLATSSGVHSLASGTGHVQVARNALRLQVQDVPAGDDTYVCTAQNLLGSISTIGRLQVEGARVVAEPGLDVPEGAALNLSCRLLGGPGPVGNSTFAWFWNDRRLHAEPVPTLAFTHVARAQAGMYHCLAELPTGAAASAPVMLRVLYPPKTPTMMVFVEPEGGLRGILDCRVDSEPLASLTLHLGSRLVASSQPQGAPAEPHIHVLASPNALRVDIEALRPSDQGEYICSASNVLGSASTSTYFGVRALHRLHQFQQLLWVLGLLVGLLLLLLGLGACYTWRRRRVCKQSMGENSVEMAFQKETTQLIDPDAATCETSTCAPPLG
# Method: as §1, §2, §3, §4
Compound,"ganglioside ELISA signal, Siglec-6 R (R122A Siglec-6-Fc)","ganglioside ELISA signal, Siglec-7 R (Siglec-7-Fc R124A)","ganglioside ELISA signal, Siglec-6 WT (Siglec-6-Fc WT)",ELISA recognition of adsorbed ganglioside by Siglec-6 (in words) (Siglec-6-Fc WT),"ganglioside ELISA signal, Siglec-7 WT (Siglec-7-Fc WT)","ganglioside ELISA signal, Siglec-1 WT (Siglec-1-Fc WT)",log10(MFI AF647) of GLL relative to log10(MFI AF647) of the same GLL against UT CHO cells (Fig. 2a) ([1]; UT),Binding of liposomes with increasing ganglioside content against Siglec-1 CHO cells (Fig. 1c) (WT Siglec-1 CHO cells; 0.0187 Ligand/nm2),Binding of liposomes with increasing ganglioside content against Siglec-1 CHO cells (Fig. 1c) (WT Siglec-1 CHO cells; 0.0933 Ligand/nm2),Binding of liposomes with increasing ganglioside content against Siglec-1 CHO cells (Fig. 1c) (WT Siglec-1 CHO cells; 0.187 Ligand/nm2),Binding of liposomes with increasing ganglioside content against Siglec-1 CHO cells (Fig. 1c) (WT Siglec-1 CHO cells; 0.373 Ligand/nm2),log10(MFI AF647) of GLL relative to log10(MFI AF647) of the same GLL against UT CHO cells (Fig. 2a) (WT Siglec-1 CHO cells),ganglioside content threshold above which GLL binding to Siglec-1 CHO cells decreased (WT Siglec-1 CHO cells),further results
CCCCCCCCCCCCCCCCOCC(COCCCCCCCCCCCCCCCC)OCc1cn(CCO[C@@H]2O[C@H](CO)[C@@H](O[C@@H]3O[C@H](CO)[C@H](O)[C@H](O[C@]4(C(=O)O)C[C@H](O)[C@@H](NC(C)=O)[C@H]([C@H](O)[C@H](O)CO)O4)[C@H]3O)[C@H](O)[C@H]2O)nn1 [GM3-DAG],,,,,,,,,,,,,,"liposome binding, fluorescence signal (replicates) ([1]; sheet Figure S22b, CHO): 267 and 269 and 241 and 218; liposome binding, fluorescence signal (replicates) ([1]; sheet Figure S26a, 3% GM3-DAG liposomes, Untrans.): 298 and 293 and 301 and 291; liposome binding, fluorescence signal (replicates) ([1]; sheet Figure S28b, 3% GM3-DAG liposomes, UT): 268 and 273 and 248 and 260; liposome binding, fluorescence signal (replicates) ([1]; sheet Figure S26d, CHO): 38 and 35 and 41"
CCCCCCCCCCCCCCCCOCC(COCCCCCCCCCCCCCCCC)OCc1cn(CCO[C@@H]2O[C@H](CO)[C@@H](O[C@@H]3O[C@H](CO)[C@H](O)[C@H](O[C@]4(C(=O)O)C[C@H](O)[C@@H](NC(C)=O)[C@H]([C@H](O)[C@H](O)CO)O4)[C@H]3O)[C@H](O)[C@H]2O)nn1 [nGL 5],,,,,,,,,,,,,,fold difference in binding to Siglec-6 between 5 and GM3 (Siglec-6-Fc WT; by ELISA): 1.5 fold
GD1a,0.08 and 0.06 and 0.05,0.05 and 0 and -0.01,-0.08 and 0.02 and 0.01 and -0.06,did not recognize,0.27 and 0.32 and 0.24 and 0.37,0.75 and 1.01 and 0.87,0.01 and -0.05 and 0 and 0.04,0.5 and 0.49 and 0.48 and 0.51,0.26 (2×) and 0.28 and 0.3,0.19 (3×) and 0.2,0.1 (2×) and 0.09 (2×),0.86 (2×) and 0.89 and 0.85,1–3 mol%,Binding of liposomes with increasing ganglioside content against Siglec-1 CHO cells (Fig. 1c) (WT Siglec-1 CHO cells; 0.000187 Ligand/nm2): -0.01; Binding of liposomes with increasing ganglioside content against Siglec-1 CHO cells (Fig. 1c) (WT Siglec-1 CHO cells; 0.00933 Ligand/nm2): 0.01
GD1b,0.07 and 0.09 and 0.06 and 0.08,0 and -0.01 and -0.02,-0.04 and 0.01,,0.41 and 0.39 and 0.38,0.52 and 0.66 and 0.64 and 0.62,0.01 (2×) and -0.01 (2×),,,,,0.7 and 0.71 (2×) and 0.63,,
GD3,0.22 and 0.2,0.01 and -0.01 and -0.02,0.04 and 0.09 and 0.03,did not recognize,0.74 and 0.73 and 0.7 and 0.66,0.76 and 0.85 and 0.8 and 0.82,0.01 (2×) and -0.01 (2×),,,,,0.41 (3×) and 0.45,,
GM1,0.02 and 0.03,0 and -0.01 and 0.03,-0.03 and -0.04 and -0.05 and -0.02,did not recognize,0.04 and 0.05 and 0.01 and 0.03,0.39 and 0.55 and 0.5 and 0.54,0.07 and -0.03 (2×) and -0.01,0.02,0.26 and 0.25 and 0.27 and 0.28,0.19 and 0.18 (2×) and 0.16,0.08 (3×) and 0.07,0.34 and 0.29 and 0.27 and 0.31,1–3 mol%,"Binding of liposomes with increasing ganglioside content against Siglec-1 CHO cells (Fig. 1c) (WT Siglec-1 CHO cells; 0.0373 Ligand/nm2): 0.13 (2×) and 0.12 (2×); Binding of liposomes with increasing ganglioside content against Siglec-1 CHO cells (Fig. 1c) (WT Siglec-1 CHO cells; 0.056 Ligand/nm2): 0.26 and 0.28 and 0.27 (2×); Liposome binding to Siglec-1-expressing CHO cells in the cell assay (Fig. 1f) (WT Siglec-1 CHO cells; 3% glycolipid in liposome): 926 and 882 and 896; GM1 liposome binding to Siglec-1 CHO cells, flow cytometry (Fig. 1b) (WT Siglec-1 CHO cells; 0.2 mol% PEG45–DSPE): 1640 and 1691 and 1719 and 1798; GM1 liposome binding to Siglec-1 CHO cells, flow cytometry (Fig. 1b) (WT Siglec-1 CHO cells; 0.5 mol% PEG45–DSPE): 1529 and 1675 and 1687 and 1576 and 1551; GM1 liposome binding to Siglec-1 CHO cells, flow cytometry (Fig. 1b) (WT Siglec-1 CHO cells; 1 mol% PEG45–DSPE): 687 and 675 and 684 and 712 and 741; GM1 liposome binding to Siglec-1 CHO cells, flow cytometry (Fig. 1b) (WT Siglec-1 CHO cells; 2 mol% PEG45–DSPE): 106 and 105 and 107 and 111 and 113; GM1 liposome binding to Siglec-1 CHO cells, flow cytometry (Fig. 1b) (WT Siglec-1 CHO cells; 5 mol% PEG45–DSPE): 79 and 80 and 82 and 81; Liposome binding to Siglec-1-expressing CHO cells in the cell assay (Fig. 1f) (WT Siglec-1 CHO cells; 20% glycolipid in liposome): 316 and 299 and 296; binding to WT Siglec-1 CHO cells (in words) (WT Siglec-1 CHO cells; cell assay): No differences in binding"
